From ChEMBL document CHEMBL1201862, “PubChem BioAssay data set” (2004)
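96-well plates; 48 h exposure; 5 concentrations. Endpoints by linear interpolation between flanking doses. Not reached: highest tested concentration assigned. Here, GI50 denotes the concentration required for 50% inhibition of growth.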 The source made the active and inactive calls. Rule as the data show it: active = GI50 up to about 1.1 µM and inactive = higher.

Legend:
Test in all cases: DTP human tumour cell line panel, 48 h
SN12C = tested on: SN12C
OVCAR-4 = tested on: OVCAR-4
NCI-H522 = tested on: NCI-H522
HT-29 = tested on: HT-29
KM12 = tested on: KM12
NCI-H460 = tested on: NCI-H460
SF-268 = tested on: SF-268
HCT-15 = tested on: HCT-15
Malme-3M = tested on: Malme-3M
K562 = tested on: K562
SF-539 = tested on: SF-539
DU-145 = tested on: DU-145
RXF 393 = tested on: RXF 393
HL-60 = tested on: HL-60
BT-549 = tested on: BT-549
MDA-MB-231 = tested on: MDA-MB-231
A498 = tested on: A498
UO-31 = tested on: UO-31
HCT-116 = tested on: HCT-116
NCI-H226 = tested on: NCI-H226

| Structure (SMILES) | GI50 (SN12C) | GI50 (OVCAR-4) | GI50 (NCI-H522) | GI50 (HT-29) | GI50 (KM12) | GI50 (NCI-H460) | GI50 (SF-268) | GI50 (HCT-15) [µM] | GI50 (Malme-3M) | GI50 (K562) | GI50 (SF-539) | GI50 (DU-145) | GI50 (RXF 393) | GI50 (HL-60) | GI50 (BT-549) | GI50 (MDA-MB-231) | GI50 (A498) | GI50 (UO-31) | GI50 (HCT-116) | GI50 (NCI-H226) |
| --- | --- | --- | --- | --- | --- | --- | --- | --- | --- | --- | --- | --- | --- | --- | --- | --- | --- | --- | --- | --- |
| CC1OC(O[C@@H]2OC=C(C=O)[C@@]3(O)CC[C@H](C)[C@@H]23)C(O)C(O)C1O (stereo not given in full) | > 100 µM (inactive) | > 100 µM (inactive) | > 100 µM (inactive) | > 100 µM (inactive) | > 100 µM (inactive) | > 100 µM (inactive) | > 100 µM (inactive) | > 100 | > 100 µM (inactive) | > 100 µM (inactive) | > 100 µM (inactive) | > 100 µM (inactive) | > 100 µM (inactive) | > 100 µM (inactive) | > 100 µM (inactive) | > 100 µM (inactive) | > 100 µM (inactive) | > 100 µM (inactive) | > 100 µM (inactive) | > 100 µM (inactive) |
| [O-][n+]1ccc(NO)c2ccccc21 | 1.38 µM (inactive) | 1.9 µM (inactive) | 1.51 µM (inactive) | 1.19 µM (inactive) | 0.984 µM (active) | 0.295 µM (active) | 0.565 µM (active) | 1.75 | 6.5 µM (inactive) | 2 µM (inactive) | 0.679 µM (active) | 1.5 µM (inactive) | 0.592 µM (active) | 0.923 µM (active) | 0.689 µM (active) | 1.32 µM (inactive) | 0.673 µM (active) | 1.75 µM (inactive) | 2.03 µM (inactive) | 1.87 µM (inactive) |
| COc1ccc(CCc2cc(OC)c(OC)c(OC)c2)cc1 | 0.114 µM (active) | 5.05 µM (inactive) | 0.0195 µM (active) | 0.0235 µM (active) | 0.0118 µM (active) | 0.0277 µM (active) | 0.423 µM (active) | 0.0169 | 0.271 µM (active) | 0.012 µM (active) | 0.0258 µM (active) | 0.0935 µM (active) | 0.0205 µM (active) | 0.014 µM (active) | 2.32 µM (inactive) | 0.296 µM (active) | < 0.0207 µM (active) | 1.95 µM (inactive) | 0.0214 µM (active) | 0.386 µM (active) |
| O=[N+]([O-])c1cc(Cc2cc([N+](=O)[O-])c3cccnc3c2O)c(O)c2ncccc12 | 4.55 µM (inactive) | 4.05 µM (inactive) | 3.51 µM (inactive) | 10.2 µM (inactive) | 6.71 µM (inactive) | 2.18 µM (inactive) | 3.52 µM (inactive) | 4.23 | 6.68 µM (inactive) | 4.16 µM (inactive) | 10.6 µM (inactive) | 9.89 µM (inactive) | 5.32 µM (inactive) | 1.61 µM (inactive) | 21.7 µM (inactive) | 3.4 µM (inactive) | 14.2 µM (inactive) | 4 µM (inactive) | 3.35 µM (inactive) | 16.6 µM (inactive) |
| CC(C)=CC(=O)c1[nH]c2ccccc2c1CC(=O)NCCc1c[nH]cn1 | > 100 µM (inactive) | > 100 µM (inactive) | > 100 µM (inactive) | > 100 µM (inactive) | > 100 µM (inactive) | > 100 µM (inactive) | > 100 µM (inactive) | > 100 | > 100 µM (inactive) | > 100 µM (inactive) | > 100 µM (inactive) | > 100 µM (inactive) | > 100 µM (inactive) | > 100 µM (inactive) | > 100 µM (inactive) | > 100 µM (inactive) | > 100 µM (inactive) | > 100 µM (inactive) | > 100 µM (inactive) | > 100 µM (inactive) |
| CCCCCCNCCCNc1c2ccccc2nc2cccc([N+](=O)[O-])c12 | 0.0173 µM (active) | 0.0147 µM (active) | 0.0121 µM (active) | 0.00528 µM (active) | 0.0127 µM (active) | 0.00269 µM (active) | 0.0163 µM (active) | 0.0615 | 0.0206 µM (active) | 0.00376 µM (active) | 0.116 µM (active) | 0.00537 µM (active) | 0.0148 µM (active) | 0.0151 µM (active) | 0.11 µM (active) | 0.0229 µM (active) | 0.164 µM (active) | 0.122 µM (active) | 0.0352 µM (active) | 0.0547 µM (active) |
